The nature of this series: gradient 5% acetonitrile 3 min, to 50% in 2 min, to 85% in 15 min, held 3 min, 100 µL/min. To be noted: column: Zorbax Extend-C18 2.1 x 50 mm; eluents: water / acetonitrile, 0.1% formic acid. In short, it runs like this: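 Standards, all pure, were combined into mixtures of ~100 molecules and run at 100 μL/min on a Zorbax Extend-C18 column (2.1 × 50 mm, 1.8 μm) with water and acetonitrile, each containing 0.1% formic acid. A coupled quadrupole time-of-flight mass spectrometer operated in positive and negative ionization mode. Retention time values come from computationally picked adduct peaks, each inspected manually.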
`CCc1nc(-c2csc(S(=O)(=O)N3CCC(C(=O)Nc4ccc(C)c(Cl)c4)CC3)c2)no1` came in with an RP-LC retention time of 994 s. The result for `Cc1ccc(F)c(NS(=O)(=O)c2ccc(-c3nnc(C4CCC4)o3)o2)c1` reads 924 s; that for `CCN(CC)CCNC(=O)CSc1cc(=O)n(C)c2cc(Cl)ccc12`, 622 s; that for `CCCNC(=O)C1CCN(c2ccc(SCC(=O)Nc3ccc(S(C)(=O)=O)cc3)nn2)CC1`, 593 s. In the case of `Cc1sc(-c2ccn[nH]2)cc1NC(=O)CCc1ccccc1`, the RP-LC retention time is 966 s. The result for `O=C(CC1CCCCN1S(=O)(=O)c1ccccc1)NCCc1c[nH]c2ccccc12` (stereo not given) reads 794 s; that for `CCOC(=O)c1nnc2c(-c3ccc(F)cc3)c(C)nn2c1N`, 857 s. `Cc1ccc(CNS(=O)(=O)c2ccc3c(c2)CCCC(=O)N3)cc1` had an RP-LC retention time of 751 s. For the compound `COCCCNC(=O)c1ccc(N2CCCN(Cc3ccccc3C)C2=O)cc1`, the RP-LC retention time was 769 s. The result for `CCCN1C(=O)NC(=O)C2NCNC21` (stereo not given) reads 604 s. The result for `Cc1c(C)n(-c2ccccc2)c2ncn(CC(=O)NC3CCCC3)c(=O)c12` reads 799 s; that for `COc1ccc(NC(=O)Nc2nccn(-c3ccc(C)c(C)c3)c2=O)cc1OC`, 913 s. As to `CC1CCN(c2nn(CC(=O)Nc3ccc4c(c3)OCCO4)c(=O)c3ccccc23)CC1`, the RP-LC retention time worked out at 1060 s. For `COc1nn(C)cc1C(=O)Nc1ccc(C(=O)Nc2cccc(-c3csc(C)n3)c2)cc1` the value was 748 s; for `Cc1cccc(N2CCN(c3cc(C)nc4c5c(C)cc(C)nc5nn34)CC2)n1`, 561 s; for `CCOc1ccccc1NC(=O)C1CCN(S(=O)(=O)c2ccc3c(c2)NC(=O)C(C)O3)CC1` (stereo not given), 897 s. The result for `O=C(Nc1ccc2c(c1)CCC2)C1CC(=O)N(CCc2c[nH]c3ccc(Cl)cc23)C1` (stereo not given) reads 921 s.

Turning to `CC1CCN(C(=O)C2CCN(c3ccc4nnc(-c5ccccc5)n4n3)CC2)CC1`, the RP-LC retention time was 902 s. Compound `CCc1ccc(Oc2cc(N3CCC(C(=O)NCCc4ccccc4)CC3)ncn2)cc1` yielded an RP-LC retention time of 998 s. On to `O=C([C@@H]1C[C@H](F)CN1C(=O)c1ccsc1)N1CCCCC1`, for which the RP-LC retention time turned out to be 653 s. For `CCc1cccc(NS(=O)(=O)c2ccc(-c3nnc(C4CCC4)o3)o2)c1` the value was 1000 s; for `CC1CCCN(S(=O)(=O)c2ccc(-c3nnc(C4CCCC4)o3)o2)C1` (stereo not given), 1080 s; for `CCCN(CC1CCOC1)C(=O)NCCc1ccccc1` (stereo not given), 791 s.

`Cc1ccc(S(=O)(=O)N2CCCC2)cc1-c1nnc(-c2ccccc2)o1`: the RP-LC retention time came out at 1010 s. In turn, `Cc1ccc(C(=O)N(c2ccc(Br)cc2)C2C=CS(=O)(=O)C2)cc1` (stereo not given) displayed an RP-LC retention time of 835 s.

Turning to `O=C(Cn1cnc2c(sc3nc(-c4ccccc4)ccc32)c1=O)Nc1cc(F)cc(F)c1`, the RP-LC retention time was 1070 s.

`COc1ccc(NC(=O)N2CCC3(CC2)NC(=O)c2ccc(F)cc2N3C)cc1` had an RP-LC retention time of 727 s.

Turning to `CCOC(=O)CNC(=O)N1CCN(c2nc3ccccc3n2CC)CC1`, the RP-LC retention time was 602 s. For the compound `CCN(CC)CCNS(=O)(=O)c1cc(-c2nc(C)c(C)s2)sc1C`, the RP-LC retention time was found to be 656 s. `Cc1ccc(C(=O)NCC2CN(C(C)C)CC23CCCCC3)s1` (stereo not given) came in with an RP-LC retention time of 670 s. The compound `COc1cccc(CNc2ncc(C(=O)O)c(C(C)C)n2)c1` gave an RP-LC retention time of 851 s. For `CC(C)NC(=O)Nc1ccccc1NC(=O)c1cccnc1` the value was 591 s; for `CCCCn1c(N)c(C(=O)OCC)c2nc3ccccc3nc21`, 613 s; for `CC1=NS(=O)(=O)N(C)C=C1C(=O)OCc1nc(-c2ccccc2)no1`, 944 s. For `Cc1oc(-c2[nH]ncc2C(=O)N(C)C)cc1S(=O)(=O)Nc1ccc(C(C)C)cc1` the value was 770 s; for `CCn1ccc(C(=O)N2CC(Oc3cccc(-c4nc(C)no4)c3)C2)n1`, 808 s; for `COc1cc(OC)c(NC(=O)Cc2nnc(-c3ccc4ncccc4c3)o2)cc1Cl`, 936 s. The result for `O=C(Nc1ncc([N+](=O)[O-])s1)c1c2c(nn1C1CCS(=O)(=O)C1)CCC2` (stereo not given) reads 792 s; that for `CCN1C(=O)COc2ccc(-c3noc(-c4ccccc4Br)n3)cc21`, 1180 s.

With `Cn1nc(C(=O)N2CCCCC2)c2c1CCN(C(=O)CCC(=O)N1CCCCCC1)C2`, the RP-LC retention time stood at 668 s. The result for `COc1cccc(N2CCN(S(=O)(=O)c3ccsc3C(=O)NCC(C)C)CC2)c1` reads 1000 s; that for `COc1nn(C)cc1C(=O)N1CCC(C(=O)NCC2CCCO2)CC1` (stereo not given), 553 s. For `Cc1ccsc1C(=O)N1CCC2(CC1)CC(N(C(=O)NC(C)C)C1CC1)CCO2` (stereo not given) the value was 798 s; for `NC(N)=Nc1nc2ccc([N+](=O)[O-])cc2[nH]1`, 651 s. For `CCOc1ccc(NC(=O)c2cnc3c(c2)c(=O)n(C)c(=O)n3-c2ccc(F)cc2)cc1` the value was 866 s; for `COc1ccccc1C(=O)Oc1ccc(N(C)C2=NS(=O)(=O)c3ccccc32)cc1`, 910 s; for `COc1ccc(NC(=O)c2cc3ccccc3c(=O)o2)c([N+](=O)[O-])c1`, 920 s. As to `Cc1nn2c(NC(=O)CSc3nnc4sc5ccccc5n34)csc2nc1=O`, the RP-LC retention time worked out at 635 s. For `CC(C)n1c(=O)oc2cc(-c3noc(-c4cccc(C#N)c4)n3)ccc21` the value was 1090 s. For `COc1ccc(-c2nc(-c3cn(-c4cccc(F)c4)nn3)no2)c(OC)c1` the value was 999 s.

Compound `Cc1ccc(C)c(NC(=O)NCCn2c(-c3ccncc3)nc3cccnc32)c1` yielded an RP-LC retention time of 638 s.

Turning to `CC(C)c1ccc(Nc2c(-c3ccc(N(C)C)cc3)nc3cnccn23)cc1`, the RP-LC retention time is 1010 s. For `O=C(Nc1ncnc2c1CCC2)c1ccc(S(=O)(=O)N2CCc3ccccc3C2)cc1` the value was 783 s; for `CCn1cc(S(=O)(=O)NCc2ccc(C)cc2)c2cccnc21`, 900 s; for `Cn1cc(CN2CC(F)(F)C[C@H]2COc2ccncc2)c2ccccc21`, 634 s. For `Cc1cc(C)c2c(N3CCCC3)nc(C(=O)N(C)Cc3ccccc3)nc2n1` the value was 654 s. For `CCCCNC(=O)C(CC)n1nc(C)c2nn(-c3ccccc3)c(C)c2c1=O` (stereo not given) the value was 934 s; for `COc1ccc2c(c1)C1(CCN(C(=O)c3cccc(F)c3)C1)C(=O)N2` (stereo not given), 717 s. In turn, `COc1ccc(OC)c(NC(=O)NCCc2nc3cccnc3n2C2CCCC2)c1` returned an RP-LC retention time of 706 s.

For the compound `O=C([C@@H]1C[C@H](Oc2ccccc2)CN1C(=O)c1cccs1)N1CCCC1`, the RP-LC retention time came to 767 s. In turn, `CSc1ccccc1NC(=O)C(=O)NCC(c1ccc2c(c1)CCCN2C)N1CCCC1` (stereo not given) gave an RP-LC retention time of 784 s. The result for `Cc1c(C(=O)N2CCC(C)CC2)cnn1-c1cc(-c2nc(C(C)(C)C)no2)ccn1` reads 1240 s. As for `O=C(Cc1csc2nc(-c3ccccc3)cn12)Nc1ccc(Br)cc1F`, the RP-LC retention time worked out at 883 s. For `O=C(Nc1ccc(F)c(Cl)c1)C1CCCN(c2ncnc3c2nc2n3CCCCC2)C1` (stereo not given) the value was 917 s. The result for `Cc1ccccc1CNC(=O)CCc1conc1-c1ccc(F)cc1` reads 922 s; that for `CCC(=O)Nc1ccc(-n2cnc(C(=O)NC3CCCCCC3)c2)nc1`, 759 s.

`O=C(NCCS(=O)(=O)N1CCc2ccccc2C1)C1CC1` yielded an RP-LC retention time of 695 s. For `CCOC(=O)c1c(C)c(CCC(=O)NCc2cn[nH]c2C)n(C)c1C`, the RP-LC retention time was 663 s. The result for `Cc1oc(-c2ccc(NC(=O)Cc3ccc(F)cc3)cc2)nc1Cn1cccn1` reads 866 s; that for `Cc1ccc(CNC(=O)C2CCN(S(=O)(=O)c3cn(C(C)C)cn3)CC2)cc1`, 745 s. Take `COc1cc2ncc(S(=O)(=O)c3ccc(Cl)cc3)c(N3CCN(C)CC3)c2cc1OC`: the RP-LC retention time came out at 634 s. For `O=C(NC1(c2nc(C3CC3)no2)CCCCC1)c1cc(-c2ccc(F)cc2)n[nH]1` the value was 905 s; for `CCOc1ccc(CCNC(=O)C2CCCN(c3nccc(C)n3)C2)cc1OCC` (stereo not given), 767 s. `COc1ccc(N2CCN(CCNC(=O)c3cccs3)CC2)cc1` registered an RP-LC retention time of 557 s. The result for `CN1C2CCC1[C@@H](COC(=O)c1ccccc1)[C@@H](O)C2` (stereo not given in full) reads 636 s. For `O=C(NCc1ccco1)C1CN(C(=O)c2ccccc2)CC12CCCCC2` (stereo not given) the value was 795 s; for `Cn1nccc1-c1cccc(-c2noc(-c3cnccn3)n2)c1`, 786 s; for `COc1ccc(-c2cn3ccn(-c4ccc(F)cc4)c(=O)c3n2)cc1OC`, 738 s.

For the compound `O=C(CN(c1ccc(F)cc1)S(=O)(=O)c1cccnc1)NCCc1ccccc1`, the RP-LC retention time was determined as 789 s. Take `O=C(NCCC1CCN(S(=O)(=O)c2ccccc2)CC1)Nc1cc(F)ccc1F`: the RP-LC retention time is 960 s.

Source of the values: the METLIN SMRT retention time set (Domingo-Almenara et al. 2019).
